In one assay the target is T1, FP receptors (Bos taurus, UniProt P37289).
T1 construct: Washed total particulate bovine corpus luteum membranes; from tissue; host or cells: bovine corpus luteum membranes
Nature of the assay: FP receptor binding assay ([3H]PGF2α, bovine corpus luteum membranes). As to conditions: for IC50: Table 1, [3H]PGF2α, bovine corpus luteum membranes, free acid form; for Ki: Table 2, FP receptor binding. The procedure: Non-specific binding was defined with 1-10 μM unlabeled PGF2α or fluprostenol. The assays were terminated by vacuum filtration (using Whatman GF/B glass fiber filter previously soaked in 0.3% polyethyleneimine) and the data analyzed by a non-linear, iterative, curve-fitting computer program.

Assay [1] has as its target T2, FP receptors (Swiss 3T3 cells expressing FP receptors) (Mus musculus, UniProt P43117).
T2 construct: endogenous in cells; host or cells: Swiss 3T3 cells
As to the kind of experiment: FP receptor-mediated phosphoinositide turnover assay. Type of assay: cell-based. To be noted: for Emax: Swiss-3T3, 1 h, efficacy relative to standard full agonist (100%), read-out: FP functional (%) agonistic activity; for EC50: [3H]-IPs in Swiss 3T3 cells; for % response: efficacy relative to standard. On the procedure: FP receptor-mediated phosphoinositide turnover assay: [^3H]Inositol phosphates ([^3H]-IPs) produced by agonist-mediated activation of phospholipase C in Swiss 3T3 cells expressing FP receptors were quantified as follows. Confluent 3T3 cells were exposed to 1.0-1.5 μCi [^3H]-myo-inositol (18.3 Ci/mmol) in 0.5 ml DMEM for 24-30 hours at 37° C. Then cells were rinsed once with DMEM/F-12 containing 10 mM LiCl, and the agonist stimulation experiment was performed in 0.5 ml of the same medium to facilitate accumulation of [^3H]-IPs. Cells were exposed to the agonist or solvent for 60 min at 37° C. (triplicate determinations), followed by aspiration of the medium and immediate addition of 1 ml of ice-cold 0.1 M formic acid. The plates were kept cold and then frozen. Samples frozen up to one week were thawed prior to chromatographic separation of radiolabeled components. The cell lysates (0.9 ml) were loaded on columns packed with approximately 1 ml AG 1-X8 anion exchange resin. The elution procedure consisted of a wash with 10 ml of H2O, then 8 ml of 50 mM ammonium formate, and finally 4 ml of 1.2 M ammonium formate with 0.1 M formic acid, which was collected in a scintillation vial. To this eluate was added 15 ml of scintillation fluid and the total [^3H]-IPs determined by scintillation counting on a beta-counter. Data were analyzed by the sigmoidal fit function of the Origin Scientific Graphics software (Microcal Software, Northampton, Mass.) to determine agonist potency (EC50 value) and efficacy, relative to the standard cloprostenol.

The test system of assay [2] is eyelash. As to the kind of experiment: Eyelash change from baseline evaluated by photographs in clinical studies. It counts as in vivo, patients. As to conditions: for Percent of Patients with Eyelash Change: Table 3; for Percent of Patients with Eyelash Change: Change Reported / Percent of Patients with Eyelash Change: Color Change / Percent of Patients with Eyelash Change: Density Change / Percent of Patients with Eyelash Change: Length Change / Percent of Patients with Eyelash Change: Thickness Change: Table 4; for change in eyelash color, length, density and/or thickness (in words): Travoprost 0.0015% and 0.004%, latanoprost 0.005% compared to travoprost. From the text:
Eyelash photographs of each eye were taken at determination of patient eligibility […] (baseline) and Months 1.5, 3, 4.5 and 6 in four clinical studies. Additional photographs were taken at Months 9 and 12 in two clinical studies. Eyelash change was classified using the following categories: change in eyelash color, increase in eyelash length, increase in eyelash density and increase in eyelash thickness. Two independent readers evaluated the photographs subjectively for any change from baseline in eyelash characteristics.

Assay [3] relates to eyelash. To be noted: in some instances, U.S. Pat. No. 6,262,105; cited from earlier work.
Where [4] appears, read: Table 1, read-out: FP functional EC50.

Like-named read-outs stand apart in the source and are kept apart here.

T1 sequence (P37289 whole entry): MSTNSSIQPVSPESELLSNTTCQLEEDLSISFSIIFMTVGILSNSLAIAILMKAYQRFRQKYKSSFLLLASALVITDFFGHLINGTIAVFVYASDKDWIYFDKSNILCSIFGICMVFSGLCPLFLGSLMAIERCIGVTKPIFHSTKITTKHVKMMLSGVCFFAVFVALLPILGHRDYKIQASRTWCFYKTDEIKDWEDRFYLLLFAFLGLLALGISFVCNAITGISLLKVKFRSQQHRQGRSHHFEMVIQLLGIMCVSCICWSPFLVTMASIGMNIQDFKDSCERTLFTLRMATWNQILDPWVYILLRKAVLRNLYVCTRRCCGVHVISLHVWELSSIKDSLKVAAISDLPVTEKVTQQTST
T2 sequence (P43117 whole entry): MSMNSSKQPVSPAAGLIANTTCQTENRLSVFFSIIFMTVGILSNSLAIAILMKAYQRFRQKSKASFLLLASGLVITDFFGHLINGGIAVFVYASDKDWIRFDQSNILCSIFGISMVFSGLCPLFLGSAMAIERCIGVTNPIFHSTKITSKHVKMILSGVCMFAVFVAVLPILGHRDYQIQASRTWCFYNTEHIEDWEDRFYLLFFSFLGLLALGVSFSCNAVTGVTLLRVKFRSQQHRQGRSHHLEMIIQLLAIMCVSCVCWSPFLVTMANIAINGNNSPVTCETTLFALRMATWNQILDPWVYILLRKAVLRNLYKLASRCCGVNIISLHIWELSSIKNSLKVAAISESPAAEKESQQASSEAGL

One may read the IC50 as the concentration that gives 50% inhibition. Low values mean greater potency in that assay, high ones weaker potency in that assay. By EC50 is commonly meant the concentration needed to bring the measured effect to its halfway point. `O=C(O)CCC/C=C\C[C@@H]1[C@@H](OC[C@H](O)COc2cccc(Cl)c2)[C@H](O)C[C@@H]1O` [Compound 66] showed an IC50 on FP receptors of 4340 nM. Further, the Emax in assay [1] (Table 1) is 56%. Moreover, in assay [1] (setting [4]), the EC50 worked out at 503 nM.

On FP receptors, `O=C(O)CCC/C=C\C[C@@H]1[C@@H](OC[C@@H](O)COc2ccccc2)[C@H](O)C[C@@H]1O` [Compound 69] yielded an IC50 of 277 nM. The Emax in assay [1] (Table 1) was determined as 57%. Further, the EC50 in assay [1] (setting [4]) was determined as 56 nM.

`O=C(O)CCC/C=C\C[C@@H]1[C@@H](OC[C@H](O)COc2ccccc2)[C@H](O)C[C@@H]1O` [Compound 70]: the IC50 at FP receptors was 1070 nM. For the same compound, the Emax in assay [1] (Table 1) came out at 57%. For the same compound, the 50% effective concentration (EC50) in assay [1] (setting [4]) stood at 166 nM.

Regarding `O=C(O)CC/C=C\CC[C@@H]1[C@@H](CC[C@@H](F)COc2ccccc2)[C@H](O)C[C@@H]1O` [Compound 74], the IC50 on FP receptors was 690 nM. Besides, in assay [1] (Table 1), the Emax was 67%. Moreover, in assay [1] (setting [4]), the EC50 came to 8.8 nM.

With `O=C(O)CCC/C=C\C[C@@H]1[C@@H](/C=C/[C@@H](F)COc2cccc(C(F)(F)F)c2)[C@H](O)C[C@@H]1O` [Compound 75], at FP receptors, the IC50 was 160 nM. Also, the Emax in assay [1] (Table 1) is 83%. Besides, the EC50 in assay [1] (setting [4]) was determined as 11.1 nM.

The compound `O=C(O)CCC/C=C\C[C@@H]1[C@@H](/C=C/[C@H](F)COc2cccc(C(F)(F)F)c2)[C@H](O)C[C@@H]1O` [Compound 76] came in with an IC50 on FP receptors of 4200 nM. Moreover, the Emax in assay [1] (Table 1) was found to be 44.5%. Further, in assay [1] (setting [4]), the EC50 worked out at 131 nM.

A word on the Ki: it is the equilibrium dissociation constant of an inhibitor or competing ligand from its target. A low value points to a stronger hold on the target. The compound `O=C(O)CCC/C=C\C[C@@H]1[C@@H](/C=C/[C@@H](O)COc2cccc(Cl)c2)[C@H](O)C[C@@H]1O` [Compound 81] came in with a Ki on FP receptors of 91 nM. In addition, the EC50 in assay [1] (Table 2, read-out: EC50) was determined as 1.4 nM. Also, the “% response” value in assay [1] (Table 2) worked out at 100%.

`O=C(O)CCC/C=C\C[C@@H]1[C@@H](/C=C/[C@@H](O)COc2cccc(C(F)(F)F)c2)[C@H](O)C[C@@H]1O` [Compound 82]: the affinity on FP receptors, expressed as Ki, was 35 nM. The EC50 in assay [1] (Table 2, read-out: EC50) is 3.8 nM. Also, the “% response” value in assay [1] (Table 2) is reported as 96%.

`O=C(O)CCC/C=C\C[C@@H]1[C@@H](CC[C@@H](O)COc2cccc(Cl)c2)[C@H](O)C[C@@H]1O` [Compound 83]: on FP receptors, the Ki was found to be 50 nM. Moreover, the EC50 in assay [1] (Table 2, read-out: EC50) worked out at 4 nM. In assay [1] (Table 2), the “% response” value is 100%.

Regarding `O=C(O)CCC/C=C\C[C@@H]1[C@@H](CC[C@H](O)COc2cccc(Cl)c2)[C@H](O)C[C@@H]1O` [Compound 84], on FP receptors, the affinity corresponds to a Ki of 130 nM. Moreover, in assay [1] (Table 2, read-out: EC50), the EC50 amounted to 210 nM. The “% response” value in assay [1] (Table 2) is on record as 76%.

Regarding `O=C(O)CCCCCC[C@@H]1[C@@H](CC[C@@H](O)COc2cccc(Cl)c2)[C@H](O)C[C@@H]1O` [Compound 85], the affinity on FP receptors, expressed as Ki, was 220 nM. Besides, in assay [1] (Table 2, read-out: EC50), the EC50 was found to be 23 nM. In assay [1] (Table 2), the “% response” value is 100%.

`O=C(O)CCCCCC[C@@H]1[C@@H](/C=C/[C@@H](O)COc2cccc(Cl)c2)[C@H](O)C[C@@H]1O` [Compound 86] came in with a Ki on FP receptors of 93 nM. The EC50 in assay [1] (Table 2, read-out: EC50) came to 4.92 nM. The “% response” value in assay [1] (Table 2) was 100%.

Compound `O=C(O)CCCCCC[C@@H]1[C@@H](/C=C/[C@H](O)COc2cccc(Cl)c2)[C@H](O)C[C@@H]1O` [Compound 87] returned an inhibition constant Ki at FP receptors of 730 nM. For the same compound, in assay [1] (Table 2, read-out: EC50), the EC50 turned out to be 38 nM. For the same compound, the “% response” value in assay [1] (Table 2) is 88%.

Turning to `O=C(O)CCC/C=C\C[C@@H]1[C@@H](/C=C/[C@H](O)COc2cccc(C(F)(F)F)c2)[C@H](O)C[C@@H]1O` [Compound 88], the affinity on FP receptors, expressed as Ki, was 150 nM. In addition, the EC50 in assay [1] (Table 2, read-out: EC50) stood at 11.6 nM. The “% response” value in assay [1] (Table 2) turned out to be 99%.

In the case of `O=C(O)CCC/C=C/C[C@@H]1[C@@H](/C=C/[C@@H](O)COc2cccc(C(F)(F)F)c2)[C@H](O)C[C@@H]1O` [Compound 89], the affinity at FP receptors, expressed as Ki, was 260 nM. For the same compound, the EC50 in assay [1] (Table 2, read-out: EC50) was 41 nM. Besides, the “% response” value in assay [1] (Table 2) came to 96%.

Take `CC(C)OC(=O)CCC/C=C\C[C@@H]1[C@@H](CC[C@@H](O)CCc2ccccc2)[C@H](O)C[C@@H]1O` [Latanoprost]: in the assay with eyelash [2] (0.005%), the “Percent of Patients with Eyelash Change” value came to 25.8%, the “Percent of Patients with Eyelash Change: Change Reported” value (“Percent of Patients … Change Reported” below) was determined as 25.8%, the “Percent of Patients with Eyelash Change: Color Change” value (shortened to “Percent of Patients … Color Change”) came out at 16.5% and the “Percent of Patients with Eyelash Change: Density Change” value (from here on “Percent of Patients … Density Change”) is given as 22.2%. For the same compound, in the assay on eyelash [2] (0.005%), the “Percent of Patients with Eyelash Change: Length Change” value (shortened to “Percent of Patients … Length Change”) was 25.8% and the “Percent of Patients with Eyelash Change: Thickness Change” value (shortened to “Percent of Patients … Thickness Change”) is 17.5%. Also, in the assay on eyelash [2], the “change in eyelash color, length, density and/or thickness (in words)” value is “greatly reduced frequency”. Also, the “eyelash growth in glaucoma patients (in words)” value with eyelash [3] is “increased eyelash growth”.

As for `CC(C)OC(=O)CCC/C=C\C[C@@H]1[C@@H](/C=C/[C@@H](O)COc2cccc(C(F)(F)F)c2)[C@H](O)C[C@@H]1O` [Travoprost], in the assay on eyelash [2] (0.0015%), the “Percent of Patients with Eyelash Change” value turned out to be 48.1%, the “Percent of Patients … Change Reported” value turned out to be 48.1%, the “Percent of Patients … Color Change” value was determined as 37.3% and the “Percent of Patients … Density Change” value was 44.6%. In the assay on eyelash [2] (0.0015%), the “Percent of Patients … Length Change” value is 48.1% and the “Percent of Patients … Thickness Change” value was 33.8%. In the assay with eyelash [2] (0.004%), the “Percent of Patients with Eyelash Change” value worked out at 61.3%, the “Percent of Patients … Change Reported” value is 61.3%, the “Percent of Patients … Color Change” value is 47.9% and the “Percent of Patients … Density Change” value came out at 58.2%. In addition, in the assay on eyelash [2] (0.004%), the “Percent of Patients … Length Change” value was determined as 61.1% and the “Percent of Patients … Thickness Change” value was 51.1%. In the assay with eyelash [2], the “change in eyelash color, length, density and/or thickness (in words)” value is “concentration-related change”.

Source of the values: patent US20030199590A1, “Prostaglandin analogues for promotion of hair growth” (priority 2002, published 2003).
